Key:
Test in all cases: relative viability (nuclei count vs DMSO), 5 days (fraction); higher = more cells survive
[1] = test system: UMC-11
Outline: (§1)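 Lung cancer cell lines were seeded in 1536-well plates and dosed by pin tool the next day, with either a single drug or a fixed anchor-drug dose combined with five library-drug doses (not always all listed) spaced in √10 steps. Five days later, one step fixed the cells and stained their nuclei (final 0.05% Triton X-100, 1% formaldehyde, 1 ug/ml Hoechst), and nuclei were counted on 4× images. Relative viability is the nuclei count in treated wells divided by the count in vehicle wells, and each value is the median of duplicate plates.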

[2] = test system: EPLC-272H
Outline: as §1

[3] = test system: EMC-BAC-2
Outline: as §1

[4] = test system: CAL-12T
Outline: as §1

[5] = test system: COR-L 105
Outline: as §1

[6] = test system: NCI-H441
Outline: as §1

[7] = test system: NCI-H358
Outline: as §1

[8] = test system: HOP-62
Outline: as §1

[9] = test system: NCI-H2126
Outline: as §1

[10] = test system: NCI-H1755
Outline: as §1

[11] = test system: NCI-H322M
Outline: as §1

[12] = test system: HCC-15
Outline: as §1

[13] = test system: ChaGo-K-1
Outline: as §1

[14] = test system: NCI-H1915
Outline: as §1

[15] = test system: LXF-289
Outline: as §1

[16] = test system: NCI-H2023
Outline: as §1

[17] = test system: HCC-78
Outline: as §1

[18] = test system: NCI-H2085
Outline: as §1

[19] = test system: NCI-H3122
Outline: as §1

[20] = test system: NCI-H1975
Outline: as §1

[21] = test system: NCI-H1666
Outline: as §1

## O=c1cc(N2CCOCC2)oc2c(-c3cccc4c3sc3ccccc34)cccc12 + Nc1nc2[nH]cc(CCc3ccc(C(=O)N[C@@H](CCC(=O)O)C(=O)O)cc3)c2c(=O)[nH]1 [Pemetrexed] (partner 0.2 µM)
[1]; first compound 0.01 µM
  relative viability: 0.738
[1]; first compound 0.03162 µM
  relative viability: 0.66
[1]; first compound 0.1 µM
  relative viability: 0.868
[1]; first compound 0.3162 µM
  relative viability: 0.805
[1]; first compound 1 µM
  relative viability: 0.789
[2]; first compound 0.01 µM
  relative viability: 0.344
[2]; first compound 0.03162 µM
  relative viability: 0.361
[2]; first compound 0.1 µM
  relative viability: 0.334
[2]; first compound 0.3162 µM
  relative viability: 0.368
[2]; first compound 1 µM
  relative viability: 0.442
[3]; first compound 0.01 µM
  relative viability: 0.459
[3]; first compound 0.03162 µM
  relative viability: 0.43
[3]; first compound 0.1 µM
  relative viability: 0.457
[3]; first compound 0.3162 µM
  relative viability: 0.477
[3]; first compound 1 µM
  relative viability: 0.456
[4]; first compound 0.01 µM
  relative viability: 1.15
[4]; first compound 0.03162 µM
  relative viability: 1.16
[4]; first compound 0.1 µM
  relative viability: 1.29
[4]; first compound 0.3162 µM
  relative viability: 1.13
[4]; first compound 1 µM
  relative viability: 1.09
[5]; first compound 0.01 µM
  relative viability: 1.09
[5]; first compound 0.03162 µM
  relative viability: 0.949
[5]; first compound 0.1 µM
  relative viability: 1.1
[5]; first compound 0.3162 µM
  relative viability: 0.997
[5]; first compound 1 µM
  relative viability: 0.854
[6]; first compound 0.01 µM
  relative viability: 0.256
[6]; first compound 0.03162 µM
  relative viability: 0.272
[6]; first compound 0.1 µM
  relative viability: 0.299
[6]; first compound 0.3162 µM
  relative viability: 0.276
[6]; first compound 1 µM
  relative viability: 0.235
[7]; first compound 0.01 µM
  relative viability: 0.166
[7]; first compound 0.03162 µM
  relative viability: 0.179
[7]; first compound 0.1 µM
  relative viability: 0.181
[7]; first compound 0.3162 µM
  relative viability: 0.18
[7]; first compound 1 µM
  relative viability: 0.173
[8]; first compound 0.01 µM
  relative viability: 0.303
[8]; first compound 0.03162 µM
  relative viability: 0.344
[8]; first compound 0.1 µM
  relative viability: 0.276
[8]; first compound 0.3162 µM
  relative viability: 0.39
[8]; first compound 1 µM
  relative viability: 0.384
[9]; first compound 0.01 µM
  relative viability: 0.713
[9]; first compound 0.03162 µM
  relative viability: 0.72
[9]; first compound 0.1 µM
  relative viability: 0.636
[9]; first compound 0.3162 µM
  relative viability: 0.668
[9]; first compound 1 µM
  relative viability: 0.674
[10]; first compound 0.01 µM
  relative viability: 0.476
[10]; first compound 0.03162 µM
  relative viability: 0.441
[10]; first compound 0.1 µM
  relative viability: 0.425
[10]; first compound 0.3162 µM
  relative viability: 0.414
[10]; first compound 1 µM
  relative viability: 0.445
[11]; first compound 0.01 µM
  relative viability: 0.611
[11]; first compound 0.03162 µM
  relative viability: 0.613
[11]; first compound 0.3162 µM
  relative viability: 0.617
[11]; first compound 1 µM
  relative viability: 0.61
[12]; first compound 0.01 µM
  relative viability: 0.214
[12]; first compound 0.03162 µM
  relative viability: 0.221
[12]; first compound 0.1 µM
  relative viability: 0.225
[12]; first compound 0.3162 µM
  relative viability: 0.205
[12]; first compound 1 µM
  relative viability: 0.195
[13]; first compound 0.01 µM
  relative viability: 0.267
[13]; first compound 0.03162 µM
  relative viability: 0.249
[13]; first compound 0.1 µM
  relative viability: 0.247
[13]; first compound 0.3162 µM
  relative viability: 0.259
[13]; first compound 1 µM
  relative viability: 0.286
[14]; first compound 0.01 µM
  relative viability: 0.495
[14]; first compound 0.03162 µM
  relative viability: 0.534
[14]; first compound 0.1 µM
  relative viability: 0.486
[14]; first compound 0.3162 µM
  relative viability: 0.441
[14]; first compound 1 µM
  relative viability: 0.486
[15]; first compound 0.01 µM
  relative viability: 0.879
[15]; first compound 0.03162 µM
  relative viability: 0.925
[15]; first compound 0.1 µM
  relative viability: 0.913
[15]; first compound 0.3162 µM
  relative viability: 0.864
[15]; first compound 1 µM
  relative viability: 0.963
[16]; first compound 0.01 µM
  relative viability: 0.284
[16]; first compound 0.03162 µM
  relative viability: 0.276
[16]; first compound 0.1 µM
  relative viability: 0.227
[16]; first compound 0.3162 µM
  relative viability: 0.249
[16]; first compound 1 µM
  relative viability: 0.161
[17]; first compound 0.01 µM
  relative viability: 0.897
[17]; first compound 0.03162 µM
  relative viability: 0.886
[17]; first compound 0.1 µM
  relative viability: 0.933
[17]; first compound 0.3162 µM
  relative viability: 0.877
[17]; first compound 1 µM
  relative viability: 0.979
[18]; first compound 0.01 µM
  relative viability: 0.905
[18]; first compound 0.03162 µM
  relative viability: 0.851
[18]; first compound 0.1 µM
  relative viability: 0.849
[18]; first compound 0.3162 µM
  relative viability: 0.865
[18]; first compound 1 µM
  relative viability: 0.867
[19]; first compound 0.01 µM
  relative viability: 0.207
[19]; first compound 0.03162 µM
  relative viability: 0.206
[19]; first compound 0.1 µM
  relative viability: 0.197
[19]; first compound 0.3162 µM
  relative viability: 0.21
[19]; first compound 1 µM
  relative viability: 0.205
[20]; first compound 0.01 µM
  relative viability: 0.309
[20]; first compound 0.03162 µM
  relative viability: 0.27
[20]; first compound 0.1 µM
  relative viability: 0.294
[20]; first compound 0.3162 µM
  relative viability: 0.267
[20]; first compound 1 µM
  relative viability: 0.309
[21]; first compound 0.01 µM
  relative viability: 0.944
[21]; first compound 0.03162 µM
  relative viability: 0.912
[21]; first compound 0.1 µM
  relative viability: 0.896
[21]; first compound 0.3162 µM
  relative viability: 0.779
[21]; first compound 1 µM
  relative viability: 0.82

— the supplement of paper PMC10307832
